Assay results as given in patent US20220153766A1, “CONDENSED TRICYCLIC COMPOUND USED AS KINASE INHIBITOR” (Hangzhou Innogate Pharma Co., Ltd., priority 2019, published 2022).

How the values were obtained:
[1] = target: T1, Ba/F3_EGFR del19/T790M/C797S cells (Homo sapiens, UniProt P00533, T790M/C797S, cells depend on it, form not given); assay: Ba/F3_EGFR (del19-T790M-C797S) cell proliferation inhibition, CTG, method 2; type: cell-based; details: 2000 cells/well, 72 h, read-out: Ba/F3_EGFR (del19-T790M-C797S) cell proliferation inhibition (IC50 value) Method 2
T1 sequence (P00533 with tags, fused parts or gaps DEL746-750/T790M/C797S, form open): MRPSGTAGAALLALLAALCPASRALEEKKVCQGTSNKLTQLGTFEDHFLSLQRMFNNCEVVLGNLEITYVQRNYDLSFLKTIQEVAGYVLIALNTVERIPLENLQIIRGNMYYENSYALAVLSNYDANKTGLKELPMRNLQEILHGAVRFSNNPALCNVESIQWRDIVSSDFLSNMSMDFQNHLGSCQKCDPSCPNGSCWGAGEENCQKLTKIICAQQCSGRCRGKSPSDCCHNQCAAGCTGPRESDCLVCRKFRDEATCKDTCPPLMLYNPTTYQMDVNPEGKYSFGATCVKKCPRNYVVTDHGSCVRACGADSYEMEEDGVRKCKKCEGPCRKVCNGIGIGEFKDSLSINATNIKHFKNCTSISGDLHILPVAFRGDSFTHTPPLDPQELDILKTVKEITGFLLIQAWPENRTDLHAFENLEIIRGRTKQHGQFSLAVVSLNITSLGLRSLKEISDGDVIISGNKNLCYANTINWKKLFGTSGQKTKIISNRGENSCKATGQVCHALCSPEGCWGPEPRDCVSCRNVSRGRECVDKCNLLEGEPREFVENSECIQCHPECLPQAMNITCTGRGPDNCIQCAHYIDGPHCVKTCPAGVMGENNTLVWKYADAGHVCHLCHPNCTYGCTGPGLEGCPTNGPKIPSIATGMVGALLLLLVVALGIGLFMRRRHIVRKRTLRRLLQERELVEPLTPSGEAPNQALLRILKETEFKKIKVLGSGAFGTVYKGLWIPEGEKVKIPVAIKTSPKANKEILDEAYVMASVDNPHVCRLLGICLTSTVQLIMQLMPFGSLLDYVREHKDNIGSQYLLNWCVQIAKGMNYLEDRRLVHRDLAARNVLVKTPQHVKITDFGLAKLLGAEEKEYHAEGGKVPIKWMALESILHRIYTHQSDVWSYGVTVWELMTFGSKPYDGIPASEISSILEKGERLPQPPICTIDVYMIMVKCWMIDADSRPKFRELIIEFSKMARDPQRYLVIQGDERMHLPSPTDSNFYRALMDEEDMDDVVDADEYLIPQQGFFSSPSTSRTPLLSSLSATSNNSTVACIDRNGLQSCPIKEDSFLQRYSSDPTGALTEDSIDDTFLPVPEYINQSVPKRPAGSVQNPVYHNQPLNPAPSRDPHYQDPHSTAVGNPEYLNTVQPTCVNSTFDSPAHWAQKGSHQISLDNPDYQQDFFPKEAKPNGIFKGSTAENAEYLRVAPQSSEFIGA
Experimental: Take a small amount of cells and count them with ViCell. 2) Adjust the cell density, inoculate the cells in a 384-well plate at 2000/well, and incubate in a 37° C., 5% CO2 incubator for 4 hours. 3) Set up the program of Tecan HP D300, add the compound to the well plate. The maximum initial concentration of the compound is 1-4 μM, 3 folds dilution, 9 concentrations, and the DMSO content in each well is unified to 0.2%.
CTG method detection: 1) Take out the CTG reagent and cell plate and equilibrate at room temperature for 30 min, add 25 μL CTG to each well, shake at medium speed for 2 min, centrifuge at 1000 rpm for 1 minutes, and stand still at room temperature for 10 minutes. 2) Envision instrument reads the chemiluminescence signal value.
Data analysis: IC50 results are analyzed by IDBS's XL-fit 5.0 software.

[2] = target: EGFR (T790M/L858R/C797S) (Homo sapiens, UniProt P00533, C797S/L858R/T790M); assay: EGFR (T790M/L858R/C797S) kinase activity inhibition, Caliper mobility shift assay; type: biochemical; details: kinase 2.5 nM, ATP 40 μM
Sequence of EGFR (T790M/L858R/C797S) (P00533 25-1210 T790M/C797S/L858R): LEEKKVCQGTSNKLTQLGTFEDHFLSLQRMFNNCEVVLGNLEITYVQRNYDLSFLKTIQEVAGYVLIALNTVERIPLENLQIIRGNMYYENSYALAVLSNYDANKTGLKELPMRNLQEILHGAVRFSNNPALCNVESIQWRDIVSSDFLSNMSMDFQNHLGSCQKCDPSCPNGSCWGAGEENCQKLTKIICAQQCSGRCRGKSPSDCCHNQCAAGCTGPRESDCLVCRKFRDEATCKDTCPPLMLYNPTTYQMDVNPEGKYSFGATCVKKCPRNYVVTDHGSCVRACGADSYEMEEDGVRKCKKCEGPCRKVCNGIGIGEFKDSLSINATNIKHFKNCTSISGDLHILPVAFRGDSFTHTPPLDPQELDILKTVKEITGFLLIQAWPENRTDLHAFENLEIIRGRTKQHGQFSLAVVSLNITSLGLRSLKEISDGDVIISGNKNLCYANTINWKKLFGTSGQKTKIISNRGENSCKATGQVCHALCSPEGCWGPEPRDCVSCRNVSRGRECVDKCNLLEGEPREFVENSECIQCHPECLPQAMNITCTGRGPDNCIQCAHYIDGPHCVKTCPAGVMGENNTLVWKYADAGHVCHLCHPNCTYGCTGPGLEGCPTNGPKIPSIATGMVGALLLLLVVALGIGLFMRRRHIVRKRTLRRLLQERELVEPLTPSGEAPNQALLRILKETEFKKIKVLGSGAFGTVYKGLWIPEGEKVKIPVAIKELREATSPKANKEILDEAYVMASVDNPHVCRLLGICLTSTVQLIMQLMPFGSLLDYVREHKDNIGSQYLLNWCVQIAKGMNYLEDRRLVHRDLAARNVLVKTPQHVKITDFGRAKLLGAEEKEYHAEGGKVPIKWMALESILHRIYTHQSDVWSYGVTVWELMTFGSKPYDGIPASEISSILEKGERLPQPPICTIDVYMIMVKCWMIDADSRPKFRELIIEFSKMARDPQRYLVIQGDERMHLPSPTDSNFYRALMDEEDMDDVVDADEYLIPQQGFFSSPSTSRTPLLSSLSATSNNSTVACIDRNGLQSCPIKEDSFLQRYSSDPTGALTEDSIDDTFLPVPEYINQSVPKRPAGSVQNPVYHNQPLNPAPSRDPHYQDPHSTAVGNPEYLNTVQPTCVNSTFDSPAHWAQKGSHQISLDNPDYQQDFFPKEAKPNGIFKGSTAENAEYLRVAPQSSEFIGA
Experimental: The basic method is the same as ALK activity test method 2. The test concentration of the compound starts at 2 μM, and is diluted 5 folds into 6 (7 for individual compounds) concentration points. […] Add 30 μL of stop solution containing EDTA to stop the kinase reaction. Use Caliper EZ Reader to read the conversion rate. Inhibition rate %=(Average positive control conversion rate %−Sample conversion rate %/(Average positive control conversion rate %−Average negative control conversion rate %). Among them: negative control wells represent the conversion rate readings without enzyme activity; positive control wells represent the conversion rate readings of wells without compound inhibition. Take the log value of the concentration as the X-axis, and the percentage inhibition rate on the Y-axis. Log (inhibitor) vs. response—Variable slope of analysis software GraphPad Prism 5 was used to fit the curve to obtain the IC50 value of each compound on the enzyme activity. Calculation formula: Y=Bottom+(Top−Bottom)/(1+10^((Log IC50−X)*HillSlope)).

[3] = Pharmacokinetic study in rats after intragastrical administration; type: in vivo; details: male, rat, plasma, po, SD rats, 3 mg/kg; for AUC(0-t): read-out: AUC0-24 h
Experimental: Example 55: Pharmacokinetic Study in Rats
Instruments: XEVO TQ-S LC/MS instrument produced by Waters. All measurement data is collected and processed by Masslynx V4.1 software, and the data is calculated and processed by Microsoft Excel. Using WinNonLin 8.0 software, the statistical moment method was used to calculate the pharmacokinetic parameters. Mainly include kinetic parameters Tmax, T1/2, Cmax, AUClast etc. […] Injection volume: 5 μL.
Animals: 3 male SD rats with a weight range of 200-220 g. After purchase, they will be kept in the laboratory of the Experimental Animal Center for 2 days and then used. They will be fasted for 12 hours predose and 4 hours after dosing. Drinking water is free during the test. After the rats were gavage, blood samples were taken according to the established time point.
Solvent: 0.5% Methylcellulose (aqueous solution containing 0.4% Tween 80 and 1% ethanol). Preparation of the solution for intragastrical administration: accurately weigh the compound, add it to the solvent, and ultrasonically at room temperature for 5 minutes to completely dissolve the drug, and prepare a 0.3 mg/ml medicinal solution.
Pharmaceutical samples: representative compounds of the structure shown in the patented formula (I) of the present invention, generally, multiple samples with similar structures (with a molecular weight difference of more than 2 units) are taken, accurately weighed, and administered together (cassette PK). In this way, multiple compounds can be screened at the same time and their oral absorption rates can be compared. A single administration was also used to study the pharmacokinetics of the drug sample in rats.
After intragastrical administration, blood was taken from the orbit at 0.25, 0.5, 1, 2, 4, 9, 12 and 24 hours, and placed in a plastic centrifuge tube pretreated with sodium heparin. After centrifugation, the supernatant plasma was used for LC-MS/MS analysis.
Accurately weigh the compounds to prepare different concentrations, perform quantitative analysis on mass spectrometry to establish a standard curve, and then test the concentration of the above-mentioned compound in the plasma to obtain the compound concentration at different time points. All measurement data are collected and processed by relevant software, and the statistical moment method is used to calculate the pharmacokinetic parameters (mainly including kinetic parameters Tmax, T1/2, Cmax, AUClast etc). The results are as follows:
Table 7: Pharmacokinetic Parameters of the Compounds after Intragastrical Administration in SD Rats

[4] = target: MAP4K1 (HPK1) (Homo sapiens, UniProt Q92918); assay: MAP4K1 (HPK1) kinase activity inhibition, Caliper mobility shift assay; type: biochemical; details: kinase 1.25 nM, ATP 10.1 μM
Sequence of MAP4K1 (HPK1) (Q92918 whole entry): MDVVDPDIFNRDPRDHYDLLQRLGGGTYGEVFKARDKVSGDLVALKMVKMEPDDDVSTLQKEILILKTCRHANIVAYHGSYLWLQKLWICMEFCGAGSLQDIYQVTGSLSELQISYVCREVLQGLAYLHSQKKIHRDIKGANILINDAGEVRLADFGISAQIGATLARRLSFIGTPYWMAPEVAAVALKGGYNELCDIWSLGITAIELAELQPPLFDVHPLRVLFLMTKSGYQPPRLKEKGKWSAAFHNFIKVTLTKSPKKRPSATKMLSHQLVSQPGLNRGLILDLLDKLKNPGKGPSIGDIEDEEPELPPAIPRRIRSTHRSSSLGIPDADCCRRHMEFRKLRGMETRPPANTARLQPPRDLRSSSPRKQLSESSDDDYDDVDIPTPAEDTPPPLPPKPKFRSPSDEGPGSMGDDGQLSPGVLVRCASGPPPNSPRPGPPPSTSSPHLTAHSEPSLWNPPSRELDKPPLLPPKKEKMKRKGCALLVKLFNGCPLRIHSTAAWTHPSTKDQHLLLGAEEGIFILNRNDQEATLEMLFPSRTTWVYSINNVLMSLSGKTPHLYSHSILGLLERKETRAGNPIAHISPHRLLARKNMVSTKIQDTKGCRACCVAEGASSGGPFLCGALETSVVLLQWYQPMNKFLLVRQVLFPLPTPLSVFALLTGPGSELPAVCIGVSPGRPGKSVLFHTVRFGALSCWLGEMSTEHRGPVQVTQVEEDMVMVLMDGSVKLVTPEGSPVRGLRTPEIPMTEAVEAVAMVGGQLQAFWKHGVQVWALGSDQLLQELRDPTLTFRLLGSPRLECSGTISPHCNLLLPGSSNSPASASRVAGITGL
Experimental: 4. MAP4K1 (HPK1) Kinase Activity Inhibition Experiment: Caliper mobility shift assay was used to detect the inhibitory effect of the compound on MAP4K1 (HPK1) kinase activity. The test concentration of the compound starts at 500 nM, and is diluted 5 folds into 5 concentration points. Use a dispenser Echo 550 to transfer 250 nL 100-fold final concentration of the compound to the target plate 3573, add 10 μL of MAP4K1 (HPK1) kinase solution with a final concentration of 1.25 nM, and incubate for 10 minutes at room temperature (the negative control well contains 10 μL kinase buffer and 250 nL 100% DMSO; the positive control well contains 10 μL kinase solution and 250 nL 100% DMSO). On the kinase MAP4K1 (HPK1), add 15 μL of ATP with a final concentration of 10.1 μM and 3 μM substrate peptide No. 25 mixed solution to react for 120 minutes. Add 30 μL of stop solution containing EDTA to stop the kinase reaction. Use Caliper EZ Reader to read the conversion rate. Inhibition rate %=(Average positive control conversion rate %−Sample conversion rate %/(Average positive control conversion rate %−Average negative control conversion rate %). Among them: negative control wells represent the conversion rate readings without enzyme activity; positive control wells represent the conversion rate readings of wells without compound inhibition. Take the log value of the concentration as the X-axis, and the percentage inhibition rate on the Y-axis. Log (inhibitor) vs. response—Variable slope of analysis software GraphPad Prism 5 was used to fit the curve to obtain the IC50 value of each compound on the enzyme activity. Calculation formula: Y=Bottom+(Top−Bottom)/(1+10 ^((Log IC50−X)*HillSlope)).

[5] = target: T1, Ba/F3_EGFR del19/T790M/C797S cells; assay: Ba/F3_EGFR (del19-T790M-C797S) cell proliferation inhibition, CTG, method 1; type: cell-based; details: 700 cells/well, 72 h, read-out: Ba/F3_EGFR (del19-T790M-C797S) cell proliferation inhibition (IC50 value) Method 1
Experimental: The cells were cultured in a 37° C., 5% CO2 incubator.
Cell plating and compound treatment: 1) Cells are routinely cultured until the cell saturation is 80%-90%, and when the number reaches the requirement, the cells are collected. 2) Resuspend in the corresponding fresh medium, take a small amount of cells to count, and prepare a cell suspension with a suitable density. 3) Inoculate the cell suspension into a 384-well plate at 700 cells/well, 30 μL per well. 4) Use Echo to add the compound to the corresponding cell well. The maximum starting concentration of the compound is 1-10 μM, 3 folds dilution, 8 concentrations.
CTG method detection: 1) Add 30 μL of CTG reagent (CelltiterGlo kit) to each well, and let it stand for 30 minutes at 37° C. and 5% CO2 in the dark. 2) Use Envision instrument to read the chemiluminescence signal value.
Data analysis: IC50 results are analyzed by GraphPad Prism 6 software. […] X: log value of compound concentration; Y: inhibition rate (% inhibition); inhibition rate (% inhibition)=(blank control well reading−compound well reading)/(blank control well reading−positive control reading)×100.

[6] = target: ALK (Homo sapiens, UniProt Q9UM73); assay: ALK kinase activity inhibition, Caliper mobility shift assay, method 2; type: biochemical; details: ALK 1.25 nM, ATP 30 μM
Sequence of ALK (Q9UM73 19-1620): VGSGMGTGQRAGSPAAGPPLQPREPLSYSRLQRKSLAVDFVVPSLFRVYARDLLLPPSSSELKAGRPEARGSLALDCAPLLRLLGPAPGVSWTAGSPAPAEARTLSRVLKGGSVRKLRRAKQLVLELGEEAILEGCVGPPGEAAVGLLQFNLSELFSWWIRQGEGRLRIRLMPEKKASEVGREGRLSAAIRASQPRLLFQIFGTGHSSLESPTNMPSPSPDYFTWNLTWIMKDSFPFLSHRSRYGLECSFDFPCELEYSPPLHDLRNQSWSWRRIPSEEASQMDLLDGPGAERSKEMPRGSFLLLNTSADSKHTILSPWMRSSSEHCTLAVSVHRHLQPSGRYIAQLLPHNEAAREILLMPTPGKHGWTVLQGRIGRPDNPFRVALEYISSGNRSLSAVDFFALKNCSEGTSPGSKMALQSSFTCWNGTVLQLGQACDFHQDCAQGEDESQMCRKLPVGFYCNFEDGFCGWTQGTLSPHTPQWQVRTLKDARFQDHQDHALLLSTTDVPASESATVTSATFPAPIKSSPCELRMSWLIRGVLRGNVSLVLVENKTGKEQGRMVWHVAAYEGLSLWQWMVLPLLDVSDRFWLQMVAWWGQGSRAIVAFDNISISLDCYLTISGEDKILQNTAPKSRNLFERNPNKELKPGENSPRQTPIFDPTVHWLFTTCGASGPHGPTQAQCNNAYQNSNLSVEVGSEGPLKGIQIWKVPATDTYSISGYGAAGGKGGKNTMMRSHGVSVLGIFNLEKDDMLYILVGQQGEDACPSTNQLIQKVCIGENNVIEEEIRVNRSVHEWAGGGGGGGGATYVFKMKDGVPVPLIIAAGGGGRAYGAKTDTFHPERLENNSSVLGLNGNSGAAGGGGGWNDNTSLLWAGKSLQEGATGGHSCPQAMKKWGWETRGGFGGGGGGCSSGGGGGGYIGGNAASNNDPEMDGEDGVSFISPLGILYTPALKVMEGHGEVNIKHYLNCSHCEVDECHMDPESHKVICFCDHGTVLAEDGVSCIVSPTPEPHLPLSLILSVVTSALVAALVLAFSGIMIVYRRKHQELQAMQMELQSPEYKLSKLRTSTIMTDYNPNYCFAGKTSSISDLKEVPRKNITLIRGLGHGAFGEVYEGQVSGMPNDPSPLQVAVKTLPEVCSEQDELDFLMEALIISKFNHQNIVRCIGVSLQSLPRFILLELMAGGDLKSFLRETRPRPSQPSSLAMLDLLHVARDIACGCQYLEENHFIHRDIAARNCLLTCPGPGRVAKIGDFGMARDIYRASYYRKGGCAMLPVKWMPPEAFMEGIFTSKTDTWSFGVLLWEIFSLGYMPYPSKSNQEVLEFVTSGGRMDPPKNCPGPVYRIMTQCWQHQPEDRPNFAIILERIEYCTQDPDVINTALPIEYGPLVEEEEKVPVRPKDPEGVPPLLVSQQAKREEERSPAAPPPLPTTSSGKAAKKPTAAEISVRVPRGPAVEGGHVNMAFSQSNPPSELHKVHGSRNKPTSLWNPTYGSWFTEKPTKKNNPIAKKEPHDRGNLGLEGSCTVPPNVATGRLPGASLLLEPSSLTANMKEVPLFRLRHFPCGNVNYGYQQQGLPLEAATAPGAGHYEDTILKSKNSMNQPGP
Experimental: 2. ALK Kinase Activity Inhibition Experiment:
Method 2: Caliper mobility shift assay was used to measure ALK protein kinase activity. The method is basically the same as method 1, with individual parameters adjusted. The initial concentration of the compound is 1 mM, and sequentially diluted 4-fold to make 6 points (7 points for some individual compounds). Use a dispenser Echo 550 to transfer 250 nL of 100-fold final concentration of the compound to the target plate 3573, add 10 μL ALK with final concentration of 1.25 nM, incubate at room temperature for 10 minutes (the negative control well contains 10 μL kinase buffer and 250 nL 100% DMSO; the positive control well contains 10 μL kinase solution and 250 nL 100% DMSO). On the kinase ALK, add 15 μL of ATP with a final concentration of 30 μM and 3 μM of the substrate peptide No. 22 mixed solution to react for 25 minutes; add 30 μL of stop detection solution containing EDTA to stop the kinase reaction. Use Caliper EZ Reader to read the conversion rate. Inhibition rate %=(Average positive control conversion rate %−Sample conversion rate %/(Average positive control conversion rate %−Average negative control conversion rate %). Among them: negative control wells represent the conversion rate readings without enzyme activity; positive control wells represent the conversion rate readings of wells without compound inhibition. Take the log value of the concentration as the X-axis, and the percentage inhibition rate on the Y-axis. Log (inhibitor) vs. response—Variable slope of analysis software GraphPad Prism 5 was used to fit the curve to obtain the IC50 value of each compound on the enzyme activity. Calculation formula: Y=Bottom+(Top−Bottom)/(1+10^((Log IC50−X)*HillSlope)).

Cc1cc(Nc2ncc(Cl)c(Nc3ccccc3P(C)(C)=O)n2)cc2c1N1CCN(C3CCOCC3)C[C@H]1CO2 [Compound 31S]
GI50 [1]: 20 to 100 nM
IC50 [2]: < 3 nM
Cmax [3]: 160 ng/mL
Tmax [3]: 1 h
half-life [3]: 6.27 h
AUC(0-t) [3]: 1350 ng·h/mL
IC50 [4]: ≤ 1 nM

C=CC(=O)N1CCN2c3c(C)cc(Nc4ncc(Cl)c(Nc5ccccc5P(C)(C)=O)n4)cc3OC[C@H]2C1 [Compound 26R]
GI50 [5]: < 20 nM
IC50 [6]: 1 to 50 nM
IC50 [2]: 3 to 15 nM
IC50 [4]: ≤ 1 nM

Cc1cc(Nc2ncc(Cl)c(Nc3ccccc3P(C)(C)=O)n2)cc2c1N1CCN(C3CCOCC3)C[C@@H]1CO2 [Compound 31R]
IC50 [6]: 1 to 50 nM
GI50 [1]: 20 to 100 nM
IC50 [2]: < 3 nM
Cmax [3]: 78.4 ng/mL
Tmax [3]: 6.33 h
half-life [3]: 5.18 h
AUC(0-t) [3]: 687 ng·h/mL
IC50 [4]: ≤ 1 nM

Cc1cc(Nc2ncc(Cl)c(Nc3ccccc3P(C)(C)=O)n2)cc2c1N1CCN(C)C[C@@H]1CO2 [Compound 25R]
GI50 [5]: < 20 nM
IC50 [6]: 1 to 50 nM
IC50 [2]: < 3 nM
Cmax [3]: 61.4 ng/mL
Tmax [3]: 6.33 h
half-life [3]: 6.75 h
AUC(0-t) [3]: 585 ng·h/mL
IC50 [4]: ≤ 1 nM

CC(=O)N1CCC(N2CCN3c4c(C)cc(Nc5ncc(Cl)c(Nc6ccccc6P(C)(C)=O)n5)cc4OC[C@H]3C2)CC1 [Compound 32R]
IC50 [6]: 1 to 50 nM
GI50 [1]: 20 to 100 nM
IC50 [2]: < 3 nM
Cmax [3]: 306 ng/mL
Tmax [3]: 2 h
half-life [3]: 1.95 h
AUC(0-t) [3]: 3420 ng·h/mL
IC50 [4]: ≤ 1 nM

CCN1CCC(N2CCN3c4c(C)cc(Nc5ncc(Cl)c(Nc6ccccc6P(C)(C)=O)n5)cc4OC[C@H]3C2)CC1 [Compound 30R]
IC50 [6]: 1 to 50 nM
GI50 [1]: 20 to 100 nM
IC50 [2]: < 3 nM
IC50 [4]: ≤ 1 nM

Cc1cc(Nc2ncc(Cl)c(Nc3ccccc3P(C)(C)=O)n2)cc2c1N1CCN(C3CCN(C)CC3)C[C@H]1CO2 [Compound 27S]
IC50 [6]: 1 to 50 nM
GI50 [1]: < 20 nM
IC50 [2]: < 3 nM
Cmax [3]: 140 ng/mL
Tmax [3]: 10 h
half-life [3]: 5.2 h
AUC(0-t) [3]: 2100 ng·h/mL
IC50 [4]: ≤ 1 nM
